{"source": "patent US9155778B2", "about": "“Tripeptides that down regulate the activity of plasma membrane transporters including sodium-D-glucose cotransporter SgIt1” (JULIUS-MAXMILLIANS-UNIVERSITAT WURZBURG, priority 2005, dated 2015)", "molecules": {"B1": {"name": "hRS1 protein: purified human regulatory protein RS1 with six C-terminal histidines, SEQ ID NO: 2 (protein, listed as Homo sapiens)", "chain": "MSSLPTSDGFNHPARSSGQSPDVGNPMSLARSVSASVCPIKPSDSDRIEPKAVKALKASAEFQLNSEKKEHLSLQDLSDHASSADHAPTDQSPAMPMQNSSEEITVAGNLEKSAERSTQGLKFHLHTRQEASLSVTSTRMHEPQMFLGEKDWHPENQNLSQVSDPQQHEEPGNEQYEVAQQKASHDQEYLCNIGDLELPEERQQNQHKIVDLEATMKGNGLPQNVDPPSAKKSIPSSECSGCSNSETFMEIDTAQQSLVTLLNSTGRQNANVKNIGALDLTLDNPLMEVETSKCNPSSEILNDSISTQDLQPPETNVEIPGTNKEYGHYSSPSLCGSCQPSVESAEESCPSITAALKELHELLVVSSKPASENTSEEVICQSETIAEGQTSIKDLSERWTQNEHLTQNEQCPQVSFHQAISVSVETEKLTGTSSDTGREAVENVNFRSLGDGLSTDKEGVPKSRESINKNRSVTVTSAKTSNQLHCTLGVEISPKLLAGEEDALNQTSEQTKSLSSNFILVKDLGQGIQNSVTDRPETRENVCPDASRPLLEYEPPTSHPSSSPAILPPLIFPATDIDRILRAGFTLQEALGALHRVGGNADLALLVLLAKNIVVPT", "modifications": "C-terminal His6 tag"}}, "key": {"hSGLT1": {"molecular_target": "T1, hSGLT1 (Homo sapiens, UniProt P13866)", "T1 construct": "expressed in transfected cells; host or cells: Xenopus laevis oocytes (cRNA injection)", "T1 sequence (P13866 1-664)": "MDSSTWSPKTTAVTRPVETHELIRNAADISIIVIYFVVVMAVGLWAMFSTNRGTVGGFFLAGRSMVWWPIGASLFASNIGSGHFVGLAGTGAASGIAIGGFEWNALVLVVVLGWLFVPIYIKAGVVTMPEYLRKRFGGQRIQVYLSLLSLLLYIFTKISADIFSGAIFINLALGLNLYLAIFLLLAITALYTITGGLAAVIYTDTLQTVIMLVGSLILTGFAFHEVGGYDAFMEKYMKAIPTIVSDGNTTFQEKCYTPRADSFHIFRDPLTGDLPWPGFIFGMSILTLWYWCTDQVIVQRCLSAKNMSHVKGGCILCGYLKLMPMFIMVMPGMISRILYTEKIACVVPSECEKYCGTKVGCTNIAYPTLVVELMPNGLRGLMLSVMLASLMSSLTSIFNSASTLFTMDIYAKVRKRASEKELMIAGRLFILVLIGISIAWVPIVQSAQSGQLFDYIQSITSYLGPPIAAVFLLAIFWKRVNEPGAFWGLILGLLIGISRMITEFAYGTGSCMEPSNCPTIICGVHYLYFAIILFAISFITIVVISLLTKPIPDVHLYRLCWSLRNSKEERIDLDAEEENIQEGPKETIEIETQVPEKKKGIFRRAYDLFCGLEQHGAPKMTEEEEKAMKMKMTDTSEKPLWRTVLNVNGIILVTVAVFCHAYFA", "assay": "hSGLT1 expressed [14C]AMG uptake in Xenopus oocytes after injection of hRS1 protein or peptides", "format": "cell-based"}, "hPEPT1": {"molecular_target": "T2, hPEPT1 (Homo sapiens, UniProt P46059)", "T2 construct": "expressed in transfected cells; host or cells: Xenopus laevis oocytes (30 ng cRNA per oocyte)", "T2 sequence (P46059 1-708)": "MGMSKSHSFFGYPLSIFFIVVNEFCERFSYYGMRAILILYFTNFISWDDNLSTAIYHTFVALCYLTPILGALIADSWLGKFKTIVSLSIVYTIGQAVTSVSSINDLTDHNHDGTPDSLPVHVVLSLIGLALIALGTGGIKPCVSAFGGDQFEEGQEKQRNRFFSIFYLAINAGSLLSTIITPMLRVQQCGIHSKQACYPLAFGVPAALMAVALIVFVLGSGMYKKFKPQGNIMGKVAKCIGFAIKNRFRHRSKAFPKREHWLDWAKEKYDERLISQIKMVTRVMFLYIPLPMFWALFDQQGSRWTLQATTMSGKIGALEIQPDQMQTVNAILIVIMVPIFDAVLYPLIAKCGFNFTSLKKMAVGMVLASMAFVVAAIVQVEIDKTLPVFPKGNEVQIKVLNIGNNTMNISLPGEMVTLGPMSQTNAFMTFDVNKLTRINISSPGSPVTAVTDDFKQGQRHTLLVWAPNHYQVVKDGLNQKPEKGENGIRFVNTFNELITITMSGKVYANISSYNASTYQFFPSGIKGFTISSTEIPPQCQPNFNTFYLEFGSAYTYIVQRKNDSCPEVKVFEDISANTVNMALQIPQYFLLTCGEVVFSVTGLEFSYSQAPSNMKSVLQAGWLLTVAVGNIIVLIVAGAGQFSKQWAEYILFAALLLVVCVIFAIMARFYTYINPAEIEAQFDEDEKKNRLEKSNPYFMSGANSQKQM", "assay": "Electrogenic peptide transport by hPEPT1 in oocytes, two-electrode voltage clamp", "format": "cell-based", "settings": "5 mM peptide", "method": "(§1) The oocytes were incubated for three days at 16° C. in ORi buffer (in mM: 5 HEPES-Tris, pH 7.4, 100 NaCl, 3 KCl, 2 CaCl2, and 1 MgCl2). […] The oocytes were superfused with Ori buffer titrated to pH 6.5, the membrane potential of the oocytes was clamped to −40 mV, and inward current induced by superfusion with Ori buffer (pH 6.5) containing 5 mM of a control dipeptide or 5 mM of the tested tripeptide was measured. • (D) Expression and Purification of hRS1"}, "RS1": {"test_system": "RS1", "assay": "Immunostaining of RS1 at the TGN in LLC-PK1 cells after brefeldin A", "format": "cell-based", "settings": "2 μg/ml brefeldin A, 1 or 5 min, subconfluent LLC-PK1 cells", "method": "For immunostaining, LLC-PK1 cells were grown on coverslips to about 50% confluence. The cells were washed twice with washing buffer (5 mM 3-(N-morpholino)propanesulfonic acid-NaOH, pH 7.4, 100 mM NaCl, 3 mM KCl, 2 mM CaCl2, and 1 mM MgCl2), fixed for 12 min with 4% (w/v) paraformaldehyde diluted in washing buffer, and washed twice again. Free aldehyde groups were quenched by 10 min incubation with washing buffer containing 40 mM glycine. For immunoreactions, washed cells were permeabilized by a 10-min incubation with washing buffer containing 0.25% (w/v) TritonX-114, and incubated over night at 4° C. with primary antibodies diluted in washing buffer. The dilutions of primary antibodies were as follows: rabbit-anti-RS1-Ab 1:50 (Valentin (2000), Biochim. Biophys. Acta, 1468, 367-380); QIS30 directed against SGLT1 1:400 (Kipp (2003), Am. J. Physiol., 285, C737-C749), sheep-anti-TGN46 1:125 (from Diagnostic International, Schriesheim, Germany). […]\nThe specificity of the antibodies was controlled as follows. […] In controls, no cross-reactivity of the used secondary antibodies with false primary antibodies used in the same experiment was detected. […]"}, "rbSGLT1": {"molecular_target": "T3, rbSGLT1 (Oryctolagus cuniculus, UniProt P11170)", "T3 construct": "expressed in transfected cells; host or cells: Xenopus laevis oocytes (cRNA injection)", "T3 sequence (P11170 1-662)": "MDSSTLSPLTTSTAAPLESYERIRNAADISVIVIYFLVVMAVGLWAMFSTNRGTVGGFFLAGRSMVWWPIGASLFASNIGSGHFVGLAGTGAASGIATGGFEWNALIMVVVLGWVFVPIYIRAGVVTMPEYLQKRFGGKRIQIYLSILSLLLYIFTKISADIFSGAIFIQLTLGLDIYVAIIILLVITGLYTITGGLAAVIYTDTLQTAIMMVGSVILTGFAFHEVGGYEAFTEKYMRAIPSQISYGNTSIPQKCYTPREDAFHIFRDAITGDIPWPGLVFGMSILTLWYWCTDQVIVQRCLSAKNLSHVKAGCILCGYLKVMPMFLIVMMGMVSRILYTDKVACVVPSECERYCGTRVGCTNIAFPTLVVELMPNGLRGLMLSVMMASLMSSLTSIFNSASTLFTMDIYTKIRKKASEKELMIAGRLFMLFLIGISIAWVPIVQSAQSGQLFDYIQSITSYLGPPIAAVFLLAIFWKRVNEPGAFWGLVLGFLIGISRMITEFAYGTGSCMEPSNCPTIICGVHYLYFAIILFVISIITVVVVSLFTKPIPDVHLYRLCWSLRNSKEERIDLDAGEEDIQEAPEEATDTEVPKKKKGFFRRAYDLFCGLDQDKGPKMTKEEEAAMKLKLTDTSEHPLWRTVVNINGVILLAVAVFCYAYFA", "assay": "rbSGLT1 expressed [14C]AMG uptake in oocytes after peptide injection", "format": "cell-based, rabbit", "settings": "50 nl containing 3 mM of each peptide, 30 min, 50 μM [14C]AMG; compared with hSGLT1", "method": "as §1\nTo develop drugs on the basis of the identified peptides animal models are required."}, "[1]": {"molecular_target": "T4, human organic cation transporter 1 (hOCT1) (Homo sapiens, UniProt O15245)", "T4 construct": "expressed in transfected cells; host or cells: oocytes", "T4 sequence (O15245 1-554)": "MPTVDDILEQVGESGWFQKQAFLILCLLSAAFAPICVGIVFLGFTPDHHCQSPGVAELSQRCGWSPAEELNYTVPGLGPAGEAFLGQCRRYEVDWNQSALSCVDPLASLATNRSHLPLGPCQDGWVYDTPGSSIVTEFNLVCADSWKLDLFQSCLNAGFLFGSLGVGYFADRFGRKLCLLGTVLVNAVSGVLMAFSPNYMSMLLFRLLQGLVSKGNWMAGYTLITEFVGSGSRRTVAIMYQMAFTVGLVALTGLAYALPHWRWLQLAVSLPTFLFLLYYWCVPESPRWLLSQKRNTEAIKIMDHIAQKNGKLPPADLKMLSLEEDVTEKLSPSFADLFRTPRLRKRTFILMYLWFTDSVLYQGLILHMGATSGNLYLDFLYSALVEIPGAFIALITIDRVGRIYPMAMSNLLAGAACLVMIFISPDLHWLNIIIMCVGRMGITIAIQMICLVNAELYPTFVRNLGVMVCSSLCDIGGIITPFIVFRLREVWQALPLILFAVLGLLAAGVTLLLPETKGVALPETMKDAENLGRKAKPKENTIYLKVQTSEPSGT", "assay": "[14C]TEA uptake expressed by hOCT1 in oocytes", "format": "cell-based", "settings": "intracellular AMG concentration of 0.1 mM", "quoted_text": "Corresponding measurements were performed in the presence of intracellular AMG concentrations of 0.1 mM, <0.01 mM or 10 mM."}}, "note": "Like-named read-outs stand apart in the source and are kept apart here. Peptide text beside a SMILES is read from it."}
{"molecule": "SDSDRIEP [Serine-Aspartic acid-Serine-Aspartic acid-Arginine-Isoleucine-Glutamic acid-Proline]", "values": [{"measurement": "inhibition of glucose uptake expressed by hSGLT1", "setting": "hSGLT1", "value": "about 50%"}, {"measurement": "inhibition of hSGLT1 expressed AMG uptake after stimulation of protein kinase C", "setting": "hSGLT1", "value": "not changed"}, {"measurement": "inhibition of hSGLT1 expressed AMG uptake with coexpressed dominant negative mutant of dynamin I", "setting": "hSGLT1", "value": "not changed"}, {"measurement": "inhibitory effect on expression of hSGLT1 when the exocytotic pathway is blocked", "setting": "hSGLT1", "value": "could be prevented"}]}
{"molecule": "NCC(=O)N[C@@H](CCC(N)=O)C(=O)O", "note": "[GC, glycylglutamine, reference compound] (H-Gly-Gln-OH)", "values": [{"measurement": "inward current induced in oocytes expressing hPEPT1", "setting": "hPEPT1; pH 6.5, clamped to −40 mV", "value": "significant inward currents"}, {"measurement": "inward current in control oocytes not injected with hPEP1-cRNA", "setting": "hPEPT1; pH 6.5, data not shown", "value": "no inward currents"}]}
{"molecule": "C[C@H]1CCC/C=C/[C@@H]2C[C@H](O)C[C@H]2[C@H](O)/C=C/C(=O)O1", "note": "[brefeldin A]", "values": [{"measurement": "RS1 immunoreactivity at the TGN / perinuclear compartment", "setting": "RS1", "value": "released from the TGN"}]}
{"molecule": "IKPSDSDRIEP [Isoleucine-Lysine-Proline-Serine-Aspartic acid-Serine-Aspartic acid -Arginine-Isoleucine-Glutamic acid-Proline]", "values": [{"measurement": "inhibition of glucose uptake expressed by hSGLT1", "setting": "hSGLT1", "value": "about 50%"}, {"measurement": "effect on glucose uptake expressed by rbSGLT1", "setting": "rbSGLT1", "value": "same effect"}]}
{"molecule": "SVQPCQENQ [reference compound]", "values": [{"measurement": "inhibition of [14C]AMG uptake by injected peptide", "setting": "hSGLT1; 50 nl/oocyte containing 1.5 mM peptide, 30 min before uptake", "value": "No inhibition"}]}
{"molecule": "B1", "values": [{"measurement": "inhibitory effect on expression of hSGLT1 when the exocytotic pathway is blocked", "setting": "hSGLT1", "value": "could be prevented"}, {"measurement": "inhibition of AMG uptake by injected hRS1 protein in the presence of BTXB", "setting": "hSGLT1; 5 ng hRS1 plus 1.7 ng BTXB, 30 min", "value": "no inhibition"}, {"measurement": "inhibition of hSGLT1 expressed AMG uptake after stimulation of protein kinase C", "setting": "hSGLT1; PKC stimulated with DOG or PMA", "value": "increased"}, {"measurement": "inhibition of hSGLT1 expressed AMG uptake with coexpressed dominant negative mutant of dynamin I", "setting": "hSGLT1; dominant negative dynamin I coexpressed", "value": "reduced"}, {"measurement": "inhibition of hSGLT1 expressed AMG uptake when endocytosis is inhibited", "setting": "hSGLT1; with clorpromazin, imipramin or filipin, data not shown", "value": "unchanged"}, {"measurement": "hOCT1 expressed [14C]TEA uptake after injection", "setting": "[1]", "value": "appears to be inhibited"}]}
